Reference: EPA's ToxValDB 9.5
Values joined by “and” are separate entries in the source; they are usually repeats but may differ in a detail not shown here. Equal values may be shown once.

Experiments:
[1] = test system: Mus musculus; conditions: subchronic, M/F
[2] = test system: Rattus norvegicus; conditions: oral
[3] = test system: Mus musculus; conditions: subchronic, duration: 13 weeks
[4] = test system: Rattus norvegicus; conditions: chronic, oral, diet
[5] = test system: Mus musculus; conditions: subchronic; duration: 90 days; oral; gavage; M/F; CD1; hepatic
[6] = test system: Rattus norvegicus; assay: LC0; higher = less toxic; conditions: acute; inhalation
[7] = test system: Mus musculus; conditions: for LD50: acute
[8] = test system: Oryctolagus sp.; conditions: for NOAEL: reproduction developmental, duration: 13 days, oral, gavage, New Zealand
[9] = test system: Cavia porcellus; conditions: acute, Guinea Pig; for LD50: dermal
[10] = test system: Rattus norvegicus
[11] = test system: Rattus norvegicus; conditions: subchronic, oral, diet
[12] = test system: Rattus norvegicus; conditions: developmental, oral, M, generation: F1
[13] = test system: Mus musculus; conditions: repeat dose other; oral
[14] = test system: Chalcophaps sp.; conditions: oral
[15] = test system: Rattus norvegicus; conditions: developmental; duration: 9 days; oral; gavage; M/F; Sprague-Dawley; developmental
[16] = test system: Rattus norvegicus; conditions: Hershberger, oral, gavage, Sprague-Dawley, active + Antiandrogenic + anti-androgenic + PPS delayed
[17] = inhalation, reduced body weight
[18] = oral, reduced rbc, packed cell volume and hemoglobin
[19] = reproduction developmental, injection, Intraperitoneal, generation: F1
[20] = subchronic, duration: 90 days, oral, diet, Fischer 344
[21] = duration: 13 weeks, M/F, Fischer 344, Body Weight Changes: Body weight gain decrease + Food Consumption: decrease + Hematology: MCH decrease MCV decrease + Blood Chemistry: T-…
[22] = gavage, Crl:CD(SD), F1: AGD (mm)

In the case of P [Phosphine], the LOAEL [1, 17] is reported as 6.3 mg/m3, the NOAEL [1, 17] is reported as 1.4 mg/m3 and the NOEL ([2]; chronic, M/F, body weight and clinical parameters) is reported as 0.026 mg/kg-day. For the same compound, the NOAEL ([3]; inhalation, intermittent, Whole body: Decreased weight) was 1.4 mg/m3 and the NOEL ([4]; duration: 2 years) was 0.026 mg/kg-day.
In the case of c1ccc2c(c1)Cc1ccccc1-2 [Fluorene], the LOAEL [1, 18] is reported as 250 mg/kg-day, the NOAEL [1, 18] is reported as 125 mg/kg-day and the LOAEL [5] is reported as 125 mg/kg-day. It also gave an NOAEL ([3]; oral, gavage, Erythrocytes: Decreased counts) of 125 mg/kg-day.
With CCCCC(CC)C(=O)O (stereo not given) [2-Ethylhexanoic acid] the LC0 [6] was 2.36 mg/L, the LD50 ([7]; injection, Intraperitoneal) was 270 mg/kg and the LD50 ([7]; injection, subcutaneous) was 910 mg/kg. The “NOAEL (% diet)” value ([7]; repeat dose other, oral, diet) was 1, the NOAEL ([7]; reproduction developmental, injection, Intraperitoneal, NMRI, generation: F1) was 500 mg/kg-day and the LOAEC [7, 19] was 1730 mg/kg-day. The NOAEL [7, 19] was at most 1150 mg/kg-day, the NOAEL ([7]; short-term, duration: 2 weeks, oral, gavage, F, B6C3F1) was 1600 mg/kg-day and the NOAEL ([7]; short-term, duration: 2 weeks, oral, gavage, M, B6C3F1) was 800 mg/kg-day. The LD50 ([8]; acute, dermal) was 1260 mg/kg, the NOAEL ([8]; F) was 25 mg/kg-day and the NOAEL ([8]; generation: F1) was 250 mg/kg-day. For the same compound, the LD50 [9] was 6300 mg/kg and 5700 mg/kg and 4550 mg/kg, the LD50 ([9]; occlusive) was 6500 mg/kg and ≥ 5000 mg/kg and ≤ 10000 mg/kg and the LC50 ([9]; inhalation) was over 2.39 µg/mL. The LD50 ([10]; acute, dermal) was over 2000 mg/kg, the LC50 ([10]; acute, inhalation) was over 0.015 µg/mL and the LD50 ([10]; acute, oral, gavage) was ≥ 1600 mg/kg and ≤ 3200 mg/kg. For the same compound, the LD50 ([10]; acute, oral, gavage, Sprague-Dawley) was ≥ 1600 mg/kg and ≤ 3200 mg/kg, the NOAEL ([10]; reproduction developmental, duration: 10 days, oral, gavage, F, Fischer 344) was 250 mg/kg-day and the NOAEL ([10]; reproduction developmental, duration: 14 days, oral, drinking water, F, Wistar) was 300 mg/kg-day. The LOAEL ([10]; reproduction developmental, oral, F, Sprague-Dawley) was 446 mg/kg-day, the NOAEL ([10]; reproduction developmental, oral, Sprague-Dawley, generation: F1) was 446 mg/kg-day and the NOAEL ([10]; reproduction developmental, oral, drinking water, Wistar, generation: F0) was 300 mg/kg-day. For the same compound, the NOAEL ([10]; reproduction developmental, oral, drinking water, Wistar, generation: F1) was 100 mg/kg-day, the NOAEL ([10]; reproduction developmental, oral, gavage, Wistar, generation: F1) was 900 mg/kg-day and the NOAEL ([10]; short-term, duration: 2 weeks, oral, gavage, F, Fischer 344) was 200 mg/kg-day. For the same compound, the NOAEL ([10]; short-term, duration: 2 weeks, oral, gavage, M, Fischer 344) was 200 mg/kg-day, the NOAEL ([10]; subchronic, duration: 13 weeks, oral, diet, Fischer 344) was 300 mg/kg-day and the “LOAEL (% diet)” value [10, 20] was 0.5. The “NOAEL (% diet)” value [10, 20] was 0.1, the “NOAEL (% diet)” value ([10]; subchronic, oral, diet, Fischer 344) was 5 and the NOAEL [11, 21] was 0.5%. The NOEL [11, 21] was 0.1%, the NOEL ([11]; F, F344/CrjBR, Body Weight Changes: decrease + Food Consumption: decrease + Blood Chemistry: Cho increase , Alb increase + Absolute Organ Weight: Liver …) was under 71 mg/kg-day and the NOEL ([11]; M/F, F344/CrjBR, Body Weight Changes: decrease + Food Consumption: decrease + Blood Chemistry: Cho increase , Alb increase + Absolute Organ Weight: Liver …) was under 0.1%.
Work on CCCCOC(=O)c1ccccc1C(=O)OCCCC [Dibutyl 1,2-benzenedicarboxylate] yielded an LOAEL ([2]; subchronic, M, mortality) of 600 mg/kg-day, an NOAEL ([2]; subchronic, M, mortality) of 125 mg/kg-day and an NOEL ([12]; Albino, F1: AGD (units not specified)) of 50 mg/kg-day. The LOEL [12, 22] was 500 mg/kg-day, the NOEL [12, 22] was 100 mg/kg-day and the NOEL ([11]; F, Fischer 344, Body Weight Changes: decrease + Food Consumption: decrease + Hematology: Hct decrease, Hgb decrease, RBC decrease, N-RBC increase, MCV …) was 177 mg/kg-day. For the same compound, the NOEL ([11]; M/F, Fischer 344, Body Weight Changes: decrease + Food Consumption: decrease + Hematology: Hct decrease, Hgb decrease, RBC decrease, N-RBC increase, MCV …) was under 240 mg/kg-day, the LOAEL [13] was 1830 mg/kg-day and the NOAEL [13] was 550 mg/kg-day. It also gave an LOAEL [14] of 1.1 mg/kg-day, an NOAEL [14] of 0.11 mg/kg-day and an NOAEL [15] of 50 mg/kg-day. It also gave an NOAEL ([4]; duration: 52 weeks, Whole body: Increased mortality) of 125 mg/kg-day, an NOEL ([16]; duration: 5 days) of 500 mg/kg-day and an NOEL ([16]; duration: 10 days) of 500 mg/kg-day.
